This passage reports TGI and GI50 results from PubChem BioAssay (NCI).

Among the test systems are SR leukemia; DMS 114 small cell lung; DMS 273 small cell lung; HOP-18 NSCLC; M19-MEL melanoma; P388 leukemia; P388/ADR leukemia; SN12K1 renal; SNB-78 CNS; LXFL 529 NSCLC.
Common to all, as to assay: NCI tumour cell line growth inhibition, 48 h

SMILES strings stand for the structures.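 Cells were grown in 96-well plates and exposed to each compound for 48 hours at five concentrations; endpoints were interpolated linearly between bracketing concentrations, or set to the highest concentration if not reached. GI50: concentration for 50% inhibition of growth. Definition used: TGI = concentration required for complete inhibition of growth.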

Turning to `CN(CCNC(=O)c1cn(C)c2c1ccc1cc(Cl)ccc12)CCNC(=O)c1cn(C)c2c1ccc1cc(Cl)ccc12`, in the assay on SR leukemia, the TGI came to 38 µM.
With `O=C1CSc2sc(=S)sc2S1`, the TGI is above 100 µM with DMS 114 small cell lung; above 100 µM in the assay on DMS 273 small cell lung; above 100 µM with HOP-18 NSCLC; above 100 µM with M19-MEL melanoma; above 100 µM in the assay on P388 leukemia; 97.8 µM in the assay with P388/ADR leukemia. Moreover, the TGI with SN12K1 renal is above 100 µM; in the assay on SNB-78 CNS it was 99.2 µM.
As to `Cc1cc(O)c2cc3c(O)c(O)ccc3cc2c1`, in the assay on SR leukemia, the TGI was 3.25 µM.
In turn, `CC(C)(C)OC(=O)N1CCCC1C(=O)NCCNc1ccc(NCCNC(=O)C2CCCN2C(=O)OC(C)(C)C)c2c1C(=O)c1ccccc1C2=O` (stereo not drawn) registered a TGI in the assay on SR leukemia above 100 µM.
Take `O=C1NC2(NC(=O)C1=O)Nc1ccccc1S2`: the TGI in the assay with DMS 114 small cell lung is 79.8 µM; with DMS 273 small cell lung, above 100 µM; in the assay on HOP-18 NSCLC, above 100 µM; in the assay with LXFL 529 NSCLC, above 87.3 µM; in the assay with SNB-78 CNS it was above 100 µM; with SR leukemia it was 61.9 µM.
In the case of `Cc1ccc(NC(=O)CC(=O)n2nc(-c3ccccc3)c(N=Nc3ccccc3C(=O)O)c2-c2ccccc2)cc1`, the TGI in the assay with DMS 273 small cell lung, in the assay with LXFL 529 NSCLC, with M19-MEL melanoma and with SR leukemia was above 100 µM each time.
Take `Nc1nccc2c1ncn2C1C=C(CO)C(O)C1O` (stereo not drawn): the GI50 is 2.18 µM with DMS 114 small cell lung; 6.13 µM with DMS 273 small cell lung; above 1000 µM in the assay with LXFL 529 NSCLC; 7.78 µM with M19-MEL melanoma; above 1000 µM with SNB-78 CNS. The TGI was above 1000 µM with DMS 114 small cell lung; above 1000 µM with DMS 273 small cell lung; above 1000 µM in the assay on LXFL 529 NSCLC; above 1000 µM in the assay with M19-MEL melanoma; above 76.4 µM with P388 leukemia; 40.8 µM with P388/ADR leukemia. The TGI in the assay with SNB-78 CNS is above 1000 µM.
Take `O=[P+](O)c1cccs1`: the TGI in the assay on DMS 114 small cell lung, with DMS 273 small cell lung, in the assay on HOP-18 NSCLC, with LXFL 529 NSCLC and in the assay on M19-MEL melanoma was above 100 µM each time.
